Tested on: IMQ-induced psoriasis in mice
Experiment: Imiquimod-induced psoriasis model in mice, PASI scoring of back skin inflammation
Type: in vivo, Balb/c mice
Source text: As already explained, psoriasis is a chronic inflammatory skin disorder. It occurs when the immune system mistakes the skin cells as a pathogen, and sends out faulty signals that speed up the proliferation of skin cells. Imiquimod (IMQ) is a potent immune activator that induces and exacerbates psoriasis when applied topically. Daily application of IMQ on mouse back skin induces inflamed scaly skin lesions resembling plaque type psoriasis. IMQ-induced psoriasis in mice has been long used as a model for human psoriasis.
The efficacy of oral administration of a FABP4-inhibitor to treat psoriasis in the IMQ-induced model in mice was tested.
The test was carried out using Balb/c mice (Envigo RMS (Israel) Ltd), average (±SD) body weight at study initiation was 18.2±0.81 g. Animals were fed ad libitum a commercial rodent diet (Teklad Certified Global 18% Protein Diet, Harlan cat #2018SC). Animals had free access to sterilized and acidified drinking water (pH between 2.5 and 3.5).
The tests included six groups of 3-10 mice per group, as follows: • one naïve (no IMQ) group; • one Vehicle control group, the vehicle formulation being 10% 1-methyl-2-pyrrolidone and 5% Cremophor EL in water for injection (WFI); • one treated group that received Cortisone acetate as a positive control—one tablet (25 mg each, Rekah Pharm) was triturated with a mortar. The powder was dissolved in 2.5 ml WFI yielding 10 mg/ml. The compound was administrated per-os at 12.5 mg/kg BW (body weight) mouse of the compound once daily for six days starting the first day of IMQ application (Day 1); and • three treated groups that received BMS (i.e. Test Item) at three doses—5, 15 and 30 mg/kg. BMS powder (Cayman Chemical) was dissolved in ethanol to create a 30 mg/ml solution. This stock solution was diluted in the Vehicle to create three different concentrations 0.5, 1.5 and 3 mg/ml. A new aqueous solution was prepared in each day. BMS was administrated per-os once daily for six days starting the first day of IMQ application (Day 1).
IMQ-induction: A daily topical dose of 62.5 mg of commercially available IMQ cream (5%) (Aldara; 3M Pharmaceuticals) was applied to animals from all the groups except for the naïve group on the shaved back for six consecutive days, translated to a daily dose of 3.125 mg of the active compound.
Experiment conditions: All animals except for the naïve group received IMQ cream (Aldara™ 5% cream, #3 Pharmaceuticals) applied on the back skin daily for six consecutive days starting on Day 1 (˜60 mg/mouse). The Test Item, Vehicle and Cortisone acetate were administered per-os daily for 6 days. During the study morbidity and mortality, body weight (BW), clinical signs, and Psoriasis Area and Severity Index (PASI) scoring were performed and representative pictures were taken. The animals were sacrificed on Day 9.
Scoring was performed by a trained observer in a “blinded” way, i.e., being unaware of the treatment. To score the severity of inflammation of the back skin, the clinical PASI scoring was employed. Erythema, scaling, and thickening were scored independently on a scale from 0 to 4: 0, none; 1, slight; 2, moderate; 3, marked; 4, very marked. The cumulative score (erythema plus scaling plus thickening), PASI scoring, served as a measure of the severity of inflammation (scale 0-12).

[1] = 15 mg/kg per-os once daily for six days
[2] = BMS treated groups (5, 15 and 30 mg/kg per-os), Day 7

CCc1c(-c2ccccc2)c(-c2ccccc2)nn1-c1ccccc1-c1cccc(OCC(=O)O)c1 [BMS, 2-[[2′-(5-ethyl-3,4-diphenyl-1H-pyrazol-1-yl)[1,1′-biphenyl]-3-yl]oxy]-acetic acid]
erythema severity score, comparison of doses [1]: best results
scaling severity score, comparison of doses [1]: best results
skin thickness severity score, comparison of doses [1]: best results
severity of skin inflammation (PASI scoring) (BMS treated groups (5, 15 and 30 mg/kg per-os once daily for six days), Day 7): significant amelioration
erythema severity score [2]: significant amelioration
scaling severity score [2]: significant amelioration
skin thickness severity score [2]: significant amelioration
impact on the inflammation severity, comparison of doses (middle dose 15 mg/kg per-os once daily for six days): highest impact
